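Results reflect a 48-hour exposure of cells in 96-well plates to compound at five concentrations. GI50 = concentration required for 50% inhibition of growth.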 Activity calls are given as the source filed them. Cut-off read from the data, not from the text of the source: active = GI50 up to about 1.1 µM and inactive = higher.
Key:
Experiment in all cases: DTP human tumour cell line panel, 48 h
SN12C = tested on: SN12C
OVCAR-3 = tested on: OVCAR-3
U-251 = tested on: U-251
CCRF-CEM = tested on: CCRF-CEM
SNB-75 = tested on: SNB-75
SNB-19 = tested on: SNB-19
HL-60 = tested on: HL-60
KM-20L2 = tested on: KM-20L2
K562 = tested on: K562
DLD-1 = tested on: DLD-1
A549 = tested on: A549
OVCAR-5 = tested on: OVCAR-5
SK-MEL-28 = tested on: SK-MEL-28
NCI-H460 = tested on: NCI-H460
DMS-273 = tested on: DMS-273
HCT-15 = tested on: HCT-15
LOX IMVI = tested on: LOX IMVI
MOLT-4 = tested on: MOLT-4
CAKI-1 = tested on: CAKI-1
HOP-92 = tested on: HOP-92
RXF 393 = tested on: RXF 393
MCF7 = tested on: MCF7
NCI-H522 = tested on: NCI-H522
NCI/ADR-RES = tested on: NCI/ADR-RES
HCT-116 = tested on: HCT-116
SW-620 = tested on: SW-620
SK-MEL-5 = tested on: SK-MEL-5
Malme-3M = tested on: Malme-3M
XF498 = tested on: XF498
SF-539 = tested on: SF-539
SF-295 = tested on: SF-295
UACC-62 = tested on: UACC-62
SF-268 = tested on: SF-268
KM12 = tested on: KM12
SK-MEL-2 = tested on: SK-MEL-2
UO-31 = tested on: UO-31
COLO 205 = tested on: COLO 205
HT-29 = tested on: HT-29
A498 = tested on: A498
SNB-78 = tested on: SNB-78
NCI-H23 = tested on: NCI-H23
NCI-H226 = tested on: NCI-H226
M19-MEL = tested on: M19-MEL
RPMI-8226 = tested on: RPMI-8226
HOP-62 = tested on: HOP-62
SK-OV-3 = tested on: SK-OV-3
HCC 2998 = tested on: HCC 2998
OVCAR-8 = tested on: OVCAR-8
UACC-257 = tested on: UACC-257
EKVX = tested on: EKVX
IGROV-1 = tested on: IGROV-1
OVCAR-4 = tested on: OVCAR-4
HOP-18 = tested on: HOP-18
DMS-114 = tested on: DMS-114
ACHN = tested on: ACHN
TK-10 = tested on: TK-10
SR = tested on: SR
786-0 = tested on: 786-0
M14 = tested on: M14
LXFL 529 = tested on: LXFL 529

Measured: GI50

COc1ccc(Cc2nn(C3OC(COC(C)=O)C(OC(C)=O)C(OC(C)=O)C3OC(C)=O)c(=S)n(-c3ccc(OC)cc3)c2=O)cc1 (stereo not drawn)
inactive: SN12C > 100 µM | OVCAR-3 > 100 µM | U-251 > 100 µM | CCRF-CEM > 100 µM | SNB-75 43.5 µM | SNB-19 > 100 µM | HL-60 > 77.8 µM | KM-20L2 > 100 µM | K562 > 100 µM | DLD-1 > 100 µM | A549 > 100 µM | OVCAR-5 > 100 µM | SK-MEL-28 > 100 µM | NCI-H460 > 100 µM | DMS-273 > 100 µM | LOX IMVI > 100 µM | MOLT-4 > 100 µM | CAKI-1 > 100 µM | HOP-92 > 87.5 µM | RXF 393 > 100 µM | MCF7 > 100 µM | NCI-H522 > 100 µM | NCI/ADR-RES > 100 µM | HCT-116 > 100 µM | SW-620 > 100 µM | SK-MEL-5 > 100 µM | Malme-3M > 100 µM | XF498 > 100 µM | SF-539 > 100 µM | SF-295 > 100 µM | UACC-62 > 100 µM | SF-268 > 100 µM | KM12 > 100 µM | SK-MEL-2 > 100 µM | UO-31 > 100 µM | COLO 205 > 100 µM | HT-29 > 100 µM | A498 > 100 µM | SNB-78 > 100 µM | NCI-H23 > 100 µM | NCI-H226 > 100 µM | M19-MEL > 100 µM | RPMI-8226 > 100 µM | HOP-62 > 100 µM | SK-OV-3 > 100 µM | HCC 2998 > 100 µM | OVCAR-8 > 100 µM | UACC-257 > 100 µM | EKVX > 54.3 µM | IGROV-1 > 100 µM | OVCAR-4 > 100 µM | HOP-18 > 94 µM
> 100 µM: HCT-15

O=C1C(Br)=CC2([N+](=O)[O-])CCNC3=C(C4=NCCc5c[nH]c(c54)C3=O)C2=C1Br (stereo not drawn)
active: OVCAR-3 0.0546 µM | CCRF-CEM 0.304 µM | HL-60 0.206 µM | KM-20L2 0.414 µM | K562 0.424 µM | DLD-1 0.364 µM | OVCAR-5 1.1 µM | HOP-92 0.811 µM | MCF7 0.0562 µM | NCI-H522 0.1 µM | NCI/ADR-RES 0.128 µM | HCT-116 0.317 µM | SW-620 0.0497 µM | SK-MEL-5 0.589 µM | COLO 205 0.0178 µM | HT-29 0.553 µM | RPMI-8226 0.159 µM | OVCAR-8 0.365 µM | UACC-257 0.279 µM | DMS-114 0.163 µM
inactive: SN12C 1.78 µM | U-251 1.51 µM | SNB-75 8.39 µM | SNB-19 2.81 µM | A549 3 µM | SK-MEL-28 3.26 µM | NCI-H460 3.39 µM | DMS-273 1.72 µM | LOX IMVI 1.56 µM | MOLT-4 1.14 µM | CAKI-1 1.49 µM | RXF 393 2.39 µM | XF498 2.24 µM | SF-539 2.11 µM | SF-295 1.91 µM | UACC-62 1.72 µM | SF-268 2.26 µM | KM12 3.96 µM | SK-MEL-2 1.65 µM | UO-31 9.59 µM | A498 5.06 µM | SNB-78 2.09 µM | NCI-H23 1.39 µM | NCI-H226 2.38 µM | HOP-62 3.58 µM | SK-OV-3 3.13 µM | HCC 2998 2.62 µM | EKVX 2.33 µM | IGROV-1 1.99 µM | OVCAR-4 1.76 µM | HOP-18 14.4 µM
0.796 µM: HCT-15

CC1(O)CCC2(C)C(=O)C1(C)CCC21OCCO1 (stereo not drawn)
inactive: SN12C > 100 µM | OVCAR-3 > 100 µM | U-251 > 100 µM | CCRF-CEM > 100 µM | ACHN > 100 µM | SNB-19 > 100 µM | HL-60 > 100 µM | K562 > 100 µM | DLD-1 > 100 µM | A549 > 100 µM | OVCAR-5 > 100 µM | SK-MEL-28 > 100 µM | NCI-H460 > 100 µM | DMS-273 > 100 µM | MOLT-4 > 100 µM | HOP-92 > 100 µM | RXF 393 > 100 µM | NCI-H522 > 100 µM | SW-620 > 100 µM | SK-MEL-5 > 100 µM | TK-10 > 100 µM | Malme-3M > 100 µM | XF498 > 100 µM | SF-539 > 100 µM | SR > 100 µM | SF-295 > 100 µM | SF-268 > 100 µM | KM12 > 100 µM | SK-MEL-2 > 100 µM | UO-31 > 100 µM | COLO 205 > 100 µM | HT-29 > 100 µM | NCI-H23 > 100 µM | NCI-H226 > 100 µM | 786-0 > 100 µM | M19-MEL > 100 µM | RPMI-8226 > 100 µM | SK-OV-3 > 100 µM | HCC 2998 > 100 µM | OVCAR-8 > 100 µM | M14 > 100 µM | UACC-257 > 100 µM | EKVX > 100 µM | IGROV-1 > 100 µM | HOP-18 > 100 µM | DMS-114 > 100 µM | LXFL 529 > 100 µM
> 100 µM: HCT-15

— ChEMBL document CHEMBL1201862, “PubChem BioAssay data set” (2004)
